Patent USRE38506E1, “Potent inducers of terminal differentiation and methods of use thereof” (Sloan-Kettering Institute for Cancer Research, priority 1991, dated 2004)

Tests used:
MELC 745A-DS19 cells = experiment: Induction of terminal differentiation of murine erythroleukemia cells (benzidine reactivity); type: cell-based; conditions: for Optimal Conc.: Table 1; for Benzidine Reactive Cells: at optimal concentration
Procedure: MELC 745A-DS19 cells and the variants of MELC derived from this cell line, namely, the vincristine-resistant MELC V3.17 and VCR.C(2)15 cell lines (26), and the dimethylsulfoxide-resistant cell line, DR10 (39), were maintained in alpha minimal essential medium containing 10% fetal calf serum (16). Cell cultures for all experiments were initiated with cells in logarithmic growth phase (day 2 cultured cells) at a density of 10^5 cells/ml. Inducer compounds were added in the final concentrations indicated below, dissolved in culture medium without fetal calf serum unless otherwise indicated. Cell density and benzidine reactively were determined as described (16).
(§1) Commitment to terminal differentiation, characterized by limited cell division (colony size<32 cells) and accumulation of hemoglobin (benzidine reactive colonies) was assayed by a colony cloning assay using 2% methylcellulose as described (25) (see Table 1 for results). HL-60 human leukemia cells, derived from peripheral blood leukocytes of a patient with acute promyelocytic leukemia (40). Induced differentiation of HL-60 cells assayed by determining the proportion of cells that developed the capacity to reduce nitroblue tetrazolium (NBT) (41) (see Table 2 for results).

[1] = test system: HL-60 human leukemia cells; experiment: Induction of Differentiation of HL-60 (NBT reduction); type: cell-based; conditions: for Optimal Conc.: HL-60, Table 2; for NBT Positive: HL-60, at optimal concentration
Procedure: as §1

SMILES	Optimal Conc. (MELC 745A-DS19 cells) [µM]	Benzidine Reactive Cells (MELC 745A-DS19 cells) [%]	Optimal Conc. [1] [µM]	NBT Positive [1] [%]
O=C(CCCCCCC(=O)Nc1cccc(F)c1F)NO [compound 41]	8	24	–	–
O=C(CCCCCCC(=O)NCc1ccccc1)NO [compound 19]	–	24	–	–
O=C(CCCCCCC(=O)Nc1ccccc1Br)NO [compound 38]	8	45	–	–
O=C(CCCCCCC(=O)Nc1ccc([N+](=O)[O-])cc1)Nc1ccc([N+](=O)[O-])cc1 [compound 65]	25	14	–	–
O=C(CCCCCCC(=O)Nc1cc(F)cc(F)c1)Nc1cc(F)cc(F)c1 [compound 61]	125	31	–	–
O=C(CCCCCCC(=O)Nc1ccc(Br)cc1)NO [compound 40]	1.6	47	–	–
O=C(CCCCCCCC(=O)Nc1ccccc1)NO [compound 4]	20	8	–	–
CC(CCCCC(C)C(=O)N(C)C)C(=O)N(C)C (stereo not shown) [compound 67]	–	90	–	–
O=C(NO)c1ccc(C(=O)Nc2ccccc2)cc1 [compound 55]	–	53	–	–
N#CCc1ccc(NC(=O)CCCCCCC(=O)NO)cc1 [compound 29]	1	30	1	15
O=C(CCCCCCC(=O)Nc1ccccc1)NO [compound 3]	–	70	1	21
[N-]=[N+]=Nc1ccc(NC(=O)CCCCCCC(=O)NO)cc1 [compound 31]	2	47	2.5	7
O=C(CCCCCCC(=O)Nc1cccc(Cl)c1)NO [compound 30]	2	33	–	–
N#Cc1ccccc1NC(=O)CCCCCCC(=O)NO [compound 23]	16	65	–	–
O=C(CCCCCCC(=O)Nc1cccc(F)c1)NO [compound 33]	1	25	–	–
O=C(CCCCCCC(=O)Nc1cc(F)c(F)c(F)c1)NO [compound 48]	8	55	–	–
O=C(CCCCCCC(=O)Nc1ccc(F)cc1F)NO [compound 45]	6	60	–	–
CNC(=O)c1ccc(NC(=O)CCCCCCC(=O)NO)cc1 [compound 37]	30	16	–	–
O=C(CCCCCCC(=O)Nc1ccccc1Cl)NO [compound 39]	4	34	–	–
O=C(CCCCCCC(=O)Nc1cccc([N+](=O)[O-])c1)NO [compound 24]	5	30	–	–
O=C(CCCCCCC(=O)Nc1c(F)ccc(F)c1F)NO [compound 43]	31	53	2	20
N#Cc1ccc(NC(=O)CCCCCCC(=O)O)cc1 [compound 7]	–	52	20	21
N#CCCCCCC(=O)NO [compound 14]	–	30	–	–

SMILES	Optimal Conc. (MELC 745A-DS19 cells) [µM]	Benzidine Reactive Cells (MELC 745A-DS19 cells) [%]	Optimal Conc. [1] [µM]	NBT Positive [1] [%]
O=C(CCCCCCC(=O)Nc1c(F)ccc(F)c1F)Nc1c(F)ccc(F)c1F [compound 62]	250	28	–	–
O=C(CCCCCCC(=O)Nc1c(F)cc(F)cc1F)NO [compound 44]	16	47	–	–
N#Cc1cccc(NC(=O)CCCCCCC(=O)NO)c1 [compound 22]	5	55	1.7	28
O=C(CCCCCCC(=O)Nc1ccc(OCc2ccccc2)cc1)NO [compound 35]	4	20	–	–
N#CCc1ccc(NC(=O)CCCCCCC(=O)Nc2ccc(CC#N)cc2)cc1 [compound 58]	50	25	–	–
N#Cc1ccc(NC(=O)CCCCCCC(=O)NO)cc1 [compound 21]	7	70	2	6
O=C(CCCCCCC(=O)Nc1cc(F)ccc1F)NO [compound 49]	4	70	–	–
CC(CCCCCC(C)C(=O)N(C)C)C(=O)N(C)C (stereo not shown) [compound 66]	–	80	–	–
O=C(O)CCCCCCC(=O)Nc1ccc(OCc2ccccc2)cc1 [compound 10]	250	26	–	–
CN(C)C(=O)CCCCCCC(=O)NO [compound 11]	–	53	–	–
O=C(CCCCCC(CCCCCC(=O)NO)C(=O)NO)NO [compound 69]	–	40	–	–
COc1ccccc1NC(=O)CCCCCCC(=O)NO [compound 51]	8	36	–	–
CC(C)(C)ONC(=O)CCCCCCC(=O)NO [compound 18]	–	38	–	–
CONC(=O)CCCCCCC(=O)NO [compound 15]	–	43	–	–
O=C(O)CCCCCCC(=O)Nc1ccc([N+](=O)[O-])cc1 [compound 8]	–	32	–	–
O=C(CCCCCCC(=O)Nc1c(F)cccc1F)Nc1c(F)cccc1F [compound 60]	100	21	–	–
O=C(CCCCCCC(=O)Nc1c(F)cc(F)cc1F)Nc1c(F)cc(F)cc1F [compound 63]	125	35	–	–
O=C(CCCCCCC(=O)Nc1ccc(F)c(F)c1)NO [compound 47]	4	61	–	–
O=C(CCCCCCCCC(=O)Nc1ccccc1)NO [compound 5]	20	15	–	–
O=C(CCCCCCC(=O)N1CCCCC1)NO [compound 17]	–	30	–	–
COC(=O)CCCCCCC(=O)NO [compound 13]	–	17	–	–
O=C(CCCCCCC(=O)Nc1ccc([N+](=O)[O-])cc1)NO [compound 25]	0.8	30	3	18
O=C(CCCCCCC(=O)Nc1ccc(F)cc1F)Nc1ccc(F)cc1F [compound 59]	500	54	–	–

SMILES	Optimal Conc. (MELC 745A-DS19 cells) [µM]	Benzidine Reactive Cells (MELC 745A-DS19 cells) [%]	Optimal Conc. [1] [µM]	NBT Positive [1] [%]
O=C(CCCCCCC(=O)Nc1cc(F)c(F)cc1F)NO [compound 42]	8	36	–	–
CC(CCC(=O)NO)CCC(=O)NO [compound 68]	–	56	–	–
COc1ccc(NC(=O)CCCCCCC(=O)NO)cc1 [compound 53]	6	37	–	–
O=C(CCCCCCC(=O)Nc1ccccc1F)NO [compound 32]	4	65	–	–
O=C(CCCCCCC(=O)Nc1c(F)c(F)c(F)c(F)c1F)Nc1c(F)c(F)c(F)c(F)c1F [compound 64]	125	13	–	–
COc1cccc(NC(=O)CCCCCCC(=O)NO)c1 [compound 52]	6	38	–	–
O=C(CCCCCC(=O)Nc1ccccc1)NO [compound 2]	20	84	7	22
O=C(O)CCCCCCC(=O)NC1CCCCC1 [compound 9]	–	20	–	–
Nc1ccccc1NC(=O)CCCCCCC(=O)NO [compound 28]	20	54	–	–
O=C(CCCCCCC(=O)Nc1cccc(C(F)(F)F)c1)NO [compound 26]	30	30	6	27
O=C(CCC(F)(F)CCC(=O)NO)NO [compound 70]	–	19	–	–
O=C(CCCCCCC(=O)Nc1c(F)c(F)c(F)c(F)c1F)NO [compound 46]	31	53	–	–
O=C(CCCCCCC(=O)Nc1ccc(C(F)(F)F)cc1)NO [compound 27]	5	47	–	–
N#Cc1cccc(NC(=O)CCCCCCC(=O)O)c1 [compound 6]	–	44	20	30
O=C(CCCCCCC(=O)Nc1cc(F)cc(F)c1)NO [compound 50]	2	73	–	–
O=C(CCCCCCC(=O)NC1CCCCC1)NO [compound 16]	–	35	–	–
O=C(O)CCCCCCC(=O)NO [compound 12]	–	35	–	–
COC(=O)c1ccc(NC(=O)CCCCCCC(=O)NO)cc1 [compound 36]	4	28	1	32
O=C(CCCCCCC(=O)Nc1ccc(C(=O)NO)cc1)Nc1ccc(C(=O)NO)cc1 [compound 57]	8	10	–	–
O=C(CCCCCCC(=O)Nc1ccc(F)cc1)NO [compound 34]	4	43	–	–
CN(C(=O)CCCCCCC(=O)NO)c1ccccc1 [compound 54]	–	40	–	–
O=C(CCCCC(=O)Nc1ccccc1)NO [compound 1]	80	70	–	–
